From patent US20070213339A1 (Bayer Pharmaceuticals Corporation, priority 2004, published 2007) come the findings set out here.

In this assay the test system is Colo205 human colon carcinoma cell line. The assay is described as follows: In vitro tumor cell proliferation assay (MTS, CellTiter 96 Aqueous One Solution). In kind it is cell-based. Conditions: COLO 205, Colo205 cells, 72 hours compound exposure, MTS absorbance at 490 nm, read-out: IC50 (concentration of test compound required to inhibit proliferation of 50% of the cells). As for the experimental part:
In Vitro Tumor Cell Proliferation Assay
The adherent H460 human non-small cell lung carcinoma and Colo205 human colon carcinoma cell lines were purchased from the American Type and Culture Collection (ATCC, Manassas, Va.) and maintained in RPMI-1640 growth media supplemented with 10% heat inactivated fetal bovine serum (Gibco, Invitrogen Corp. Grand Island, N.Y.). At 37° C. in a humidified atmosphere of 5% CO2.
The CellTiter 960 Aqueous One Solution kit, MTS, (Promega, Madison, Wis.) was used to measure proliferation of tumor cell lines in vitro. This method monitors the bioreduction of a tetrazolium dye as a measure of cell viability. On Day 0, exponentially growing cells were trypsinized, resuspended in RPMI-1640 growth media supplemented with 10% FCS, 100 u/ml of penicillin G and 100 ug/ml of streptomycin sulfate, and seeded at 2000 cells per well into 96 well microtiter plates. Cells were incubated overnight in a humidified atmosphere of 5% CO2 at 37° C. On Day 1, serial dilutions of compounds were prepared at 2× the finial assay concentration. One hundred microliters of 2× solution was added to test wells in duplicate and control wells received no test compound. The final drug concentration ranged from 0 to 10-20 um in a 5 point dose-response curve. Cells were incubated in the presence of test compounds in a humidified atmosphere of 5% CO2 at 37° C. for 72 hours. After 72 hours of compound exposure, 40 ul of Promega CellTiter 960 Aqueous One Solution was added to each well and absorbance at 490 n-M was measured using a multi-well plate reader. Percent inhibition of proliferation was calculated using the following formula: 100×(1−Absorbancetreated−Background/(Absorbancecontrol−Background)
Absorbancetreated=absorbance at 490 nm in test wells, cells with test compound
Absorbancecontrol=absorbance at 490 nm in control wells, cells with no test compound
Background=absorbance 490 nm in wells containing media and no cells
The concentration of test compound required to inhibit proliferation of 50% of the cells (IC50) was determined by linear regression analysis.
Representative compounds of the invention were tested in the above-described Colo205 human colon carcinoma cell line in vitro assay and found to inhibit human colon carcinoma cell proliferation, and are summarized as follows: […]
Regarding `CN(C)Cc1ccc(-n2cc(C(=O)O)c(=O)c3cc(F)c(N4CCN(c5ccccn5)CC4)c(OC(F)(F)F)c32)cc1` [Example 126, 1-{4-[(dimethylamino)methyl]phenyl}-6-fluoro-4-oxo-7-(4-pyridin-2-ylpiperazin-1-yl)-8-(trifluoromethoxy)-1,4-dihydroquinoline-3-carboxylic acid], the IC50 was less than 0.5 µM.
For the compound `CCN(CC)Cc1ccc(-n2cc(C(=O)O)c(=O)c3cc(F)c(N4CCN(c5ccc(F)cc5)CC4)c(OC(F)(F)Cl)c32)cc1` [Example 163, 8-[chloro(difluoro)methoxy]-1-{4-[(diethylamino)methyl]phenyl}-6-fluoro-7-[4-(4-fluorophenyl)piperazin-1-yl]-4-oxo-1,4-dihydroquinoline-3-carboxylic acid], the IC50 was less than 0.5 µM.
For the compound `NC(=O)c1ccccc1N1CCN(c2c(F)cc3c(=O)c(C(=O)O)cn(-c4ccc(CN5CCCC5)cc4)c3c2Cl)CC1` [Example 10, 7-{4-[2-(aminocarbonyl)phenyl]piperazin-1-yl}-8-chloro-6-fluoro-4-oxo-1-[4-(pyrrolidin-1-ylmethyl)phenyl]-1,4-dihydroquinoline-3-carboxylic acid], the IC50 lay in the range of 2 to 20 µM.
Take `CON(C)Cc1ccc(-n2cc(C(=O)O)c(=O)c3cc(F)c(N4CCN(c5ccc(Cl)cc5)CC4)c(Cl)c32)cc1` [Example 52, 8-chloro-7-[4-(4-chlorophenyl)piperazin-1-yl]-6-fluoro-1-(4-{[methoxy(methyl)amino]methyl}phenyl)-4-oxo-1,4-dihydroquinoline-3-carboxylic acid]: the IC50 was 2 to 20 µM.
`COc1c(N2CCN(c3ccccc3[N+](=O)[O-])CC2)c(F)cc2c(=O)c(C(=O)O)cn(-c3ccc(CN4CCCC4)cc3)c12` [Example 84, 6-fluoro-8-methoxy-7-[4-(2-nitrophenyl)-piperazin-1-yl]-4-oxo-1-[4-(pyrrolidin-1-ylmethyl)phenyl]-1,4-dihydroquinoline-3-carboxylic acid]: the IC50 was 0.5 to 2 µM.
With `COc1c(N2CCN(c3ccc(F)cc3F)CC2)c(F)cc2c(=O)c(C(=O)O)cn(-c3ccc(CN(C)C)cc3)c12` [Example 101, 7-[4-(2,4-difluorophenyl)piperazin-1-yl]-1-{4-[(dimethylamino)methyl]phenyl}-6-fluoro-8-methoxy-4-oxo-1,4-dihydroquinoline-3-carboxylic acid], the IC50 was 0.5 to 2 µM.
The same measure for `NC(=O)c1cccnc1N1CCN(c2c(F)cc3c(=O)c(C(=O)O)cn(-c4ccc(CN5CCCC5)cc4)c3c2Cl)CC1` [Example 9, 7-{4-[3-(aminocarbonyl)pyridin-2-yl]piperazin-1-yl}-8-chloro-6-fluoro-4-oxo-1-[4-(pyrrolidin-1-ylmethyl)phenyl]-1,4-dihydroquinoline-3-carboxylic acid]: 0.5 to 2 µM.
As for `CCN(CC)Cc1ccc(-n2cc(C(=O)O)c(=O)c3cc(F)c(N4CCN(c5ccccc5OC)CC4)c(OC)c32)cc1` [Example 110, 1-{4-[(diethylamino)methyl]phenyl}-6-fluoro-8-methoxy-7-[4-(2-methoxyphenyl)piperazin-1-yl]-4-oxo-1,4-dihydroquinoline-3-carboxylic acid], the IC50 was less than 0.5 µM.
The same measure for `O=C(O)c1cn(-c2ccc(CN3CCCC3)cc2)c2c(Cl)c(N3CCN(c4ccc(F)cc4F)CC3)c(F)cc2c1=O` [Example 8, 8-chloro-7-[4-(2,4-difluorophenyl)piperazin-1-yl]-6-fluoro-4-oxo-1-[4-(pyrrolidin-1-ylmethyl)phenyl]-1,4-dihydroquinoline-3-carboxylic acid]: 0.5 to 2 µM; for `O=C(O)c1cn(-c2ccc(CN3CCCC3)nc2)c2c(Cl)c(N3CCN(c4ncccn4)CC3)c(F)cc2c1=O` [Example 33, 8-chloro-6-fluoro-4-oxo-7-(4-pyrimidin-2-ylpiperazin-1-yl)-1-[6-(pyrrolidin-1-ylmethyl)pyridin-3-yl]-1,4-dihydroquinoline-3-carboxylic acid]: 2 to 20 µM; for `CN(C)Cc1ccc(-n2cc(C(=O)O)c(=O)c3cc(F)c(N4CCN(c5ccc(Cl)cc5)CC4)c(OC(F)(F)Cl)c32)cc1` [Example 156, 8-[chloro(difluoro)methoxy]-7-[4-(4-chlorophenyl)piperazin-1-yl]-1-{4-[(dimethylamino)methyl]phenyl}-6-fluoro-4-oxo-1,4-dihydroquinoline-3-carboxylic acid]: less than 0.5 µM.
Turning to `N#Cc1cccnc1N1CCN(c2c(F)cc3c(=O)c(C(=O)O)cn(-c4ccc(CN5CCCC5)cc4F)c3c2Cl)CC1` [Example 45, 8-chloro-7-[4-(3-cyanopyridin-2-yl)piperazin-1-yl]-6-fluoro-1-[2-fluoro-4-(pyrrolidin-1-ylmethyl)phenyl]-4-oxo-1,4-dihydroquinoline-3-carboxylic acid], the IC50 was less than 0.5 µM.
As for `O=C(O)c1cn(-c2ccc(CNC3CCC3)cc2)c2c(Cl)c(N3CCN(c4ncccn4)CC3)c(F)cc2c1=O` [Example 191, 8-chloro-1-(4-cyclobutylaminomethyl-phenyl)-6-fluoro-4-oxo-7-(4-pyrimidin-2-yl-piperazin-1-yl)-1,4-dihydroquinoline-3-carboxylic acid], the figure is less than 0.5 µM.
As for `CCN(CC)Cc1ccc(-n2cc(C(=O)O)c(=O)c3cc(F)c(N4CCN(c5ccc(C(C)=O)cc5)CC4)c(OC)c32)cc1` [Example 116, 7-[4-(4-acetylphenyl)piperazin-1-yl]-1-{4-[(diethylamino)methyl]phenyl}-6-fluoro-8-methoxy-4-oxo-1,4-dihydroquinoline-3-carboxylic acid], the figure is less than 0.5 µM; as for `COc1c(N2CCN(c3ccc(C(C)=O)cc3)CC2)c(F)cc2c(=O)c(C(=O)O)cn(-c3ccc(CN(C)C)cc3)c12` [Example 103, 7-[4-(4-acetylphenyl)piperazin-1-yl]-1-{4-[(dimethylamino)methyl]phenyl}-6-fluoro-8-methoxy-4-oxo-1,4-dihydroquinoline-3-carboxylic acid], 0.5 to 2 µM; as for `CON(C)Cc1ccc(-n2cc(C(=O)O)c(=O)c3cc(F)c(N4CCN(c5ccccc5C#N)CC4)c(Cl)c32)cc1` [Example 53, 8-chloro-7-[4-(2-cyanophenyl)piperazin-1-yl]-6-fluoro-1-(4-{[methoxy(methyl)amino]methyl}phenyl)-4-oxo-1,4-dihydroquinoline-3-carboxylic acid], 2 to 20 µM.
In the case of `CCN(CC)Cc1ccc(-n2cc(C(=O)O)c(=O)c3cc(F)c(N4CCN(c5cc(Cl)ccc5C)CC4)c(OC(F)(F)F)c32)cc1` [Example 134, 7-[4-(5-chloro-2-methylphenyl)piperazin-1-yl]-1-{4-[(diethylamino)methyl]phenyl}-6-fluoro-4-oxo-8-(trifluoromethoxy)-1,4-dihydroquinoline-3-carboxylic acid], the IC50 was in the range of 0.5 to 2 µM.
In the case of `O=C(O)c1cn(-c2cccc(CN3CCCCC3)c2)c2c(Cl)c(N3CCN(c4ncccn4)CC3)c(F)cc2c1=O` [Example 66, 8-chloro-6-fluoro-4-oxo-1-[3-(piperidin-1-yl-methyl)phenyl]-7-(4-pyrimidin-2-ylpiperazin-1-yl)-1,4-dihydroquinoline-3-carboxylic acid], the IC50 lay within 2 to 20 µM.
In the case of `COc1c(N2CCN(c3ccc(C(C)=O)cc3)CC2)c(F)cc2c(=O)c(C(=O)O)cn(-c3ccc(CN4CCCC4)cc3)c12` [Example 78, 7-[4-(4-acetylphenyl)piperazin-1-yl]-6-fluoro-8-methoxy-4-oxo-1-[4-(pyrrolidin-1-ylmethyl)phenyl]-1,4-dihydroquinoline-3-carboxylic acid], the IC50 fell in the range of 0.5 to 2 µM.
In the case of `O=C(O)c1cn(-c2ccc(CN3CC[C@H](O)C3)cc2)c2c(Cl)c(N3CCN(c4ccc(F)cc4)CC3)c(F)cc2c1=O` [Example 29, 8-chloro-6-fluoro-7-[4-(4-fluorophenyl)-piperazin-1-yl]-1-(4-{[(3S)-3-hydroxypyrrolidin-1-yl]methyl}phenyl)-4-oxo-1,4-dihydroquinoline-3-carboxylic acid], the IC50 was less than 0.5 µM.
The same measure for `O=C(O)c1cn(-c2ccc(CN3CC[C@H](O)C3)cc2)c2c(Cl)c(N3CCN(c4ccccn4)CC3)c(F)cc2c1=O` [Example 28, 8-chloro-6-fluoro-1-(4-{[(3S)-3-hydroxypyrrolidin-1-yl]methyl}phenyl)-4-oxo-7-(4-pyridin-2-ylpiperazin-1-yl)-1,4-dihydroquinoline-3-carboxylic acid]: less than 0.5 µM.
Take `COc1c(N2CCN(c3ccccn3)CC2)c(F)cc2c(=O)c(C(=O)O)cn(-c3ccc(CN(C)C)cc3)c12` [Example 92, 1-{4-[(dimethylamino)methyl]phenyl}-6-fluoro-8-methoxy-4-oxo-7-(4-pyridin-2-ylpiperazin-1-yl)-1,4-dihydroquinoline-3-carboxylic acid]: the IC50 is less than 0.5 µM.
